# System: amyloid deposition in AD brain (homogenates of frontal, temporal, parietal cortex and cerebellum)
# Experiment: [^3H]PIB binding to homogenates of postmortem brain
# Parameters: species or system human
# Conditions: AD n=5, control n=4; 1 nM [^3H]PIB
# Experimental: To determine whether benzothiazole amyloid imaging probes might be sensitive to changes in brain amyloid deposition caused by an anti-amyloid therapy in general, testing by immunization with AN-1792 was performed. Studies were performed for the binding of {N-methyl-^3H}2-[4′-(methylamino)phenyl]6-hydroxy-benzothiazole ([^3H]PIB) to homogenates of frontal cortex and cerebellum obtained from control subjects (n=4), AD patients (n=5) and from a single AN-1792-treated AD case (in duplicate). See, e.g., Example 9.
# This [^11C]PIB retention follows the known topography of amyloid deposition in AD brain (Klunk et al. 2004, Ann. Neurol., 55 (3):306-19). To determine whether the present benzothiazole amyloid imaging probes are sensitive to changes in brain amyloid deposition caused by an anti-amyloid therapy in general, studies were performed for the binding of {N-methyl-^3H}2-[4′-(methylamino)phenyl]6-hydroxy-benzothiazole ([^3H]PIB) to homogenates of postmortem brain from […] AN-1792-treated AD cases. […] An aliquot was submitted for Aβ ELISA and another aliquot was assayed for [^3H]PIB binding after dilution with phosphate-buffered saline (100 mg tissue, incubated with 1 nM [^3H]PIB, filtered, washed and counted to determine bound [^3H]PIB).
smiles,measurement,value
"[3H]C([3H])([3H])Nc1ccc(-c2nc3ccc(O)cc3s2)cc1 [[^3H]PIB, {N-methyl-^3H}2-[4′-(methylamino)phenyl]6-hydroxy-benzothiazole]",[^3H]PIB binding to frontal cortex homogenates of AD patients compared to control brain,elevated [^3H]PIB binding compared to control brain
